How the values were obtained:
VEEV TC83 = test: microbe, parasite or virus in culture; format: cell-based; settings: Venezuelan equine encephalitis virus, Vero 76, 48 h, read-out: VEEV TC83 EC50 nM
WEEV California = test: microbe, parasite or virus in culture; format: cell-based; settings: Western equine encephalitis virus, Vero 76, 48 h, read-out: WEEV California EC50 nM

COc1ccc(-n2c([C@H]3CCCN3)nc3c(C)cc(C#N)cc3c2=O)cc1F [Example 52, (R)-3-(3-fluoro-4-methoxyphenyl)-8-methyl-4-oxo-2-(pyrrolidin-2-yl)-3,4-dihydroquinazoline-6-carbonitrile]
EC50 (VEEV TC83): 1 to 50 nM
EC50 (WEEV California): 1 to 50 nM

COc1ccc(-n2c([C@H]3C[C@H](F)CN3)nc3c(C)cc(C#N)cc3c2=O)cc1 [Example 53, 2-((2R,4S)-4-fluoropyrrolidin-2-yl)-3-(4-methoxyphenyl)-8-methyl-4-oxo-3,4-dihydroquinazoline-6-carbonitrile]
EC50 (VEEV TC83): 151 to 500 nM
EC50 (WEEV California): 151 to 500 nM

COc1ccc(-n2c([C@H]3C[C@H](F)CN3)nc3c(C)cc(C#N)cc3c2=O)cc1F [Example 54, 3-(3-fluoro-4-methoxyphenyl)-2-((2R,4S)-4-fluoropyrrolidin-2-yl)-8-methyl-4-oxo-3,4-dihydroquinazoline-6-carbonitrile]
EC50 (VEEV TC83): 151 to 500 nM
EC50 (WEEV California): 151 to 500 nM

COc1ccc(-n2c([C@@H]3CCCN3)nc3c(C)cc([N+](=O)[O-])cc3c2=O)cc1 [Example 56, (S)-3-(4-methoxyphenyl)-8-methyl-6-nitro-2-(pyrrolidin-2-yl) quinazolin-4 (3H)-one]
EC50 (VEEV TC83): 1 to 50 nM
EC50 (WEEV California): 51 to 150 nM

Cc1cc([N+](=O)[O-])cc2c(=O)n(-c3ccc(Cl)c(F)c3)c([C@H]3CCCN3)nc12 [Example 60, (R)-3-(4-chloro-3-fluorophenyl)-8-methyl-6-nitro-2-(pyrrolidin-2-yl) quinazolin-4 (3H)-one]
EC50 (VEEV TC83): 1 to 50 nM
EC50 (WEEV California): 1 to 50 nM

COc1ccc(-n2c([C@H]3C[C@H](F)CN3)nc3c(C)cc([N+](=O)[O-])cc3c2=O)cc1F [Example 62, 2-((2R,4S)-4-fluoropyrrolidin-2-yl)-3-(3-fluoro-4-methoxyphenyl)-8-methyl-6-nitroquinazolin-4 (3H)-one]
EC50 (VEEV TC83): 51 to 150 nM
EC50 (WEEV California): 51 to 150 nM

COc1ccc(-n2c([C@@H]3C[C@@H](F)CN3)nc3c(C)cc([N+](=O)[O-])cc3c2=O)cc1 [Example 63, 2-((2S,4R)-4-fluoropyrrolidin-2-yl)-3-(4-methoxyphenyl)-8-methyl-6-nitroquinazolin-4 (3H)-one]
EC50 (VEEV TC83): > 1000 nM
EC50 (WEEV California): > 1000 nM

COc1ccc(-n2c([C@@H]3C[C@@H](F)CN3)nc3c(C)cc([N+](=O)[O-])cc3c2=O)cc1F [Example 64, 2-((2S,4R)-4-fluoropyrrolidin-2-yl)-3-(3-fluoro-4-methoxyphenyl)-8-methyl-6-nitroquin-azolin-4 (3H)-one]
EC50 (VEEV TC83): > 1000 nM
EC50 (WEEV California): > 1000 nM

COc1ccc(-n2c([C@H]3CCNC3)nc3c(C)cc([N+](=O)[O-])cc3c2=O)cc1F [Example 65, (S)-3-(3-fluoro-4-methoxyphenyl)-8-methyl-6-nitro-2-(pyrrolidin-3-yl) quinazolin-4 (3H)-one]
EC50 (VEEV TC83): 51 to 150 nM
EC50 (WEEV California): 51 to 150 nM

COc1ccc(-n2c([C@H]3CCN(C)C3)nc3c(C)cc([N+](=O)[O-])cc3c2=O)cc1F [Example 66, (S)-3-(3-fluoro-4-methoxyphenyl)-8-methyl-2-(1-methylpyrrolidin-3-yl)-6-nitroquinazolin-4 (3H)-one]
EC50 (VEEV TC83): 151 to 500 nM
EC50 (WEEV California): 151 to 500 nM

COc1ccc(-n2c([C@@H]3CCNC3)nc3c(C)cc([N+](=O)[O-])cc3c2=O)cc1F [Example 67, (R)-3-(3-fluoro-4-methoxyphenyl)-8-methyl-6-nitro-2-(pyrrolidin-3-yl) quinazolin-4 (3H)-one]
EC50 (VEEV TC83): 151 to 500 nM
EC50 (WEEV California): 151 to 500 nM

COc1ccc(-n2c([C@@H]3CCN(C)C3)nc3c(C)cc([N+](=O)[O-])cc3c2=O)cc1F [Example 68, (R)-3-(3-fluoro-4-methoxyphenyl)-8-methyl-2-(1-methylpyrrolidin-3-yl)-6-nitroquinazolin-4 (3H)-one]
EC50 (VEEV TC83): 151 to 500 nM
EC50 (WEEV California): 151 to 500 nM

COc1ccc(-n2c([C@@H]3CCCN3)nc3c(C)cc([N+](=O)[O-])cc3c2=O)cc1F [Example 69, (S)-3-(3-fluoro-4-methoxyphenyl)-8-methyl-6-nitro-2-(pyrrolidin-2-yl) quinazolin-4 (3H)-one]
EC50 (VEEV TC83): 151 to 500 nM
EC50 (WEEV California): 51 to 150 nM

COc1ccc(-n2c([C@@H]3CCCN3C)nc3c(C)cc([N+](=O)[O-])cc3c2=O)cc1F [Example 70, (S)-3-(3-fluoro-4-methoxyphenyl)-8-methyl-2-(1-methylpyrrolidin-2-yl)-6-nitroquinazolin-4 (3H)-one]
EC50 (VEEV TC83): 1 to 50 nM
EC50 (WEEV California): 1 to 50 nM

COc1ccc(-n2c([C@H]3CCCN3C)nc3c(C)cc([N+](=O)[O-])cc3c2=O)cc1F [Example 71, (R)-3-(3-fluoro-4-methoxyphenyl)-8-methyl-2-(1-methylpyrrolidin-2-yl)-6-nitroquinazolin-4 (3H)-one]
EC50 (VEEV TC83): 51 to 150 nM
EC50 (WEEV California): 51 to 150 nM

COc1ccc(-n2c([C@H]3CCCN3)nc3ccc(C#N)c(F)c3c2=O)cc1 [Example 73, (R)-5-fluoro-3-(4-methoxyphenyl)-4-oxo-2-(pyrrolidin-2-yl)-3,4-dihydroquinazoline-6-carbonitrile]
EC50 (VEEV TC83): > 1000 nM
EC50 (WEEV California): > 1000 nM

COc1ccc(-n2c([C@H]3CCCN3)nc3c(C(F)(F)F)cc(C#N)cc3c2=O)cc1 [Example 74, (R)-3-(4-methoxyphenyl)-4-oxo-2-(pyrrolidin-2-yl)-8-(trifluoromethyl)-3,4-dihydroquinazoline-6-carbonitrile]
EC50 (VEEV TC83): 1 to 50 nM
EC50 (WEEV California): 1 to 50 nM

COc1ccc(-n2c([C@@H]3CCCN3)nc3c(C(F)(F)F)cc(C#N)cc3c2=O)cc1 [Example 75, (S)-3-(4-methoxyphenyl)-4-oxo-2-(pyrrolidin-2-yl)-8-(trifluoromethyl)-3,4-dihydroquinazoline-6-carbonitrile]
EC50 (VEEV TC83): 51 to 150 nM
EC50 (WEEV California): 51 to 150 nM

COc1ccc(-n2c([C@H]3CCCN3)nc3c(C(F)(F)F)cc(C#N)cc3c2=O)cc1F [Example 76, (R)-3-(3-fluoro-4-methoxyphenyl)-4-oxo-2-(pyrrolidin-2-yl)-8-(trifluoromethyl)-3,4-dihydroquinazoline-6-carbonitrile]
EC50 (VEEV TC83): 1 to 50 nM
EC50 (WEEV California): 1 to 50 nM

COc1ccc(-n2c([C@@H]3CCCN3)nc3c(C(F)(F)F)cc(C#N)cc3c2=O)cc1F [Example 77, (S)-3-(3-fluoro-4-methoxyphenyl)-4-oxo-2-(pyrrolidin-2-yl)-8-(trifluoromethyl)-3,4-dihydroquinazoline-6-carbonitrile]
EC50 (VEEV TC83): 51 to 150 nM
EC50 (WEEV California): 1 to 50 nM

COc1ccc(-n2c([C@H]3CCCN3)nc3c(F)cc(C#N)cc3c2=O)cc1 [Example 78, (R)-8-fluoro-3-(4-methoxyphenyl)-4-oxo-2-(pyrrolidin-2-yl)-3,4-dihydroquinazoline-6-carbonitrile]
EC50 (VEEV TC83): 51 to 150 nM
EC50 (WEEV California): 51 to 150 nM

COc1ccc(-n2c([C@@H]3CCCN3)nc3c(F)cc(C#N)cc3c2=O)cc1 [Example 79, (S)-8-fluoro-3-(4-methoxyphenyl)-4-oxo-2-(pyrrolidin-2-yl)-3,4-dihydroquinazoline-6-carbonitrile]
EC50 (VEEV TC83): 501 to 1000 nM
EC50 (WEEV California): 501 to 1000 nM

COc1ccc(-n2c([C@H]3CCCN3)nc3c(Br)cc([N+](=O)[O-])cc3c2=O)cc1 [Example 80, (R)-8-bromo-3-(4-methoxyphenyl)-6-nitro-2-(pyrrolidin-2-yl) quinazolin-4 (3H)-one]
EC50 (VEEV TC83): 1 to 50 nM
EC50 (WEEV California): 1 to 50 nM

COc1ccc(-n2c([C@H]3CCCN3)nc3c(-c4cccnc4)cc([N+](=O)[O-])cc3c2=O)cc1F [Example 81, (R)-3-(3-fluoro-4-methoxyphenyl)-6-nitro-8-(pyridin-3-yl)-2-(pyrrolidin-2-yl) quinazolin-4 (3H)-one]
EC50 (VEEV TC83): 1 to 50 nM
EC50 (WEEV California): 1 to 50 nM

COc1ccc(-n2c([C@H]3CCCN3)nc3c(-c4ccncc4)cc([N+](=O)[O-])cc3c2=O)cc1F [Example 82, (R)-3-(3-fluoro-4-methoxyphenyl)-6-nitro-8-(pyridin-4-yl)-2-(pyrrolidin-2-yl) quinazolin-4 (3H)-one]
EC50 (VEEV TC83): 1 to 50 nM
EC50 (WEEV California): 1 to 50 nM

COc1ccc(-n2c([C@@H]3CCCN3)nc3c(-c4cccnc4)cc([N+](=O)[O-])cc3c2=O)cc1F [Example 83, (S)-3-(3-fluoro-4-methoxyphenyl)-6-nitro-8-(pyridin-3-yl)-2-(pyrrolidin-2-yl) quinazolin-4 (3H)-one]
EC50 (VEEV TC83): 1 to 50 nM
EC50 (WEEV California): 1 to 50 nM

COc1ccc(-n2c([C@@H]3CCCN3)nc3c(-c4ccncc4)cc([N+](=O)[O-])cc3c2=O)cc1F [Example 84, (S)-3-(3-fluoro-4-methoxyphenyl)-6-nitro-8-(pyridin-4-yl)-2-(pyrrolidin-2-yl) quinazolin-4 (3H)-one]
EC50 (VEEV TC83): 1 to 50 nM
EC50 (WEEV California): 1 to 50 nM

COc1ccc(-n2c([C@H]3CCCN3)nc3c(-c4cccnc4)cc([N+](=O)[O-])cc3c2=O)cc1 [Example 85, (R)-3-(4-methoxyphenyl)-6-nitro-8-(pyridin-3-yl)-2-(pyrrolidin-2-yl) quinazolin-4 (3H)-one]
EC50 (VEEV TC83): 1 to 50 nM
EC50 (WEEV California): 1 to 50 nM

COc1ccc(-n2c([C@H]3CCCN3)nc3c(-c4cncnc4)cc([N+](=O)[O-])cc3c2=O)cc1 [Example 87, (R)-3-(4-methoxyphenyl)-6-nitro-8-(pyrimidin-5-yl)-2-(pyrrolidin-2-yl) quinazolin-4 (3H)-one]
EC50 (VEEV TC83): 1 to 50 nM
EC50 (WEEV California): 1 to 50 nM

COc1ccc(-n2c([C@H]3CCCN3)nc3c(-c4cncnc4)cc([N+](=O)[O-])cc3c2=O)cc1F [Example 88, (R)-3-(3-fluoro-4-methoxyphenyl)-6-nitro-8-(pyrimidin-5-yl)-2-(pyrrolidin-2-yl) quinazol-in-4 (3H)-one]
EC50 (VEEV TC83): 1 to 50 nM
EC50 (WEEV California): 1 to 50 nM

COc1ccc(-n2c([C@H]3CCCN3)nc3c(-c4ccnc(F)c4)cc([N+](=O)[O-])cc3c2=O)cc1F [Example 90, (R)-3-(3-fluoro-4-methoxyphenyl)-8-(2-fluoropyridin-4-yl)-6-nitro-2-(pyrrolidin-2-yl) quinazolin-4 (3H)-one]
EC50 (VEEV TC83): 1 to 50 nM
EC50 (WEEV California): 1 to 50 nM

— patent US20220348558A1, “INHIBITORS OF ENCEPHALITIC ALPHAVIRUSES” (priority 2019, published 2022)
